Calls of active or inactive are those of the source. Rule as the data show it: actives have a measured IC50 and inactives only a lower limit.

For the assay, the target named is Envelope glycoprotein gp160 (Human immunodeficiency virus 1, UniProt Q6QLK5). The experiment in a line: inhibitors of HIV fusion peptide binding, primary screen, biochemical, uHTS, fluorescence dequenching (AID 1986).
Sequence of Envelope glycoprotein gp160 (Q6QLK5 whole entry, the tested form may be a part): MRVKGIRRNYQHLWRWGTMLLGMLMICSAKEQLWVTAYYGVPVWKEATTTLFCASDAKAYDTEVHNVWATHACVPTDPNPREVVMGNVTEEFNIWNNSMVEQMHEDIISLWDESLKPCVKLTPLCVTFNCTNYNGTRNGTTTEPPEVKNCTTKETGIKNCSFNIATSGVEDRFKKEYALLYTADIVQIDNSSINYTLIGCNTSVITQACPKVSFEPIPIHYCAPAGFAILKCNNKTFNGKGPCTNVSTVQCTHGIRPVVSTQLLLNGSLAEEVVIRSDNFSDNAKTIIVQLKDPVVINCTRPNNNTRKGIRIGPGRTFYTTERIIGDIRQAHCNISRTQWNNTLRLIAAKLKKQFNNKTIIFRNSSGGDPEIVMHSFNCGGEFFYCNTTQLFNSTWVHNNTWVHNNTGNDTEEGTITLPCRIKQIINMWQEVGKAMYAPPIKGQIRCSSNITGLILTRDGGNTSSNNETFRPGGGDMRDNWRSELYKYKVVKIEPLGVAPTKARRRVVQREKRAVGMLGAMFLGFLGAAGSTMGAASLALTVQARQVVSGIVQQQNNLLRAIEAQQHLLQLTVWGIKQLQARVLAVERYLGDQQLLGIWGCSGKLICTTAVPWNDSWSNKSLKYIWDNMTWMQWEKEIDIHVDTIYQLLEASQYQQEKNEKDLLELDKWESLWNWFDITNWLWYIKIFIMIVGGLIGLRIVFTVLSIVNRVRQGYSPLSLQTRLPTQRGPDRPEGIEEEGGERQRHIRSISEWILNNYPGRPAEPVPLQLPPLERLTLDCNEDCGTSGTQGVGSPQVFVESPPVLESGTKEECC
Regarding `O=C(O)c1ccc(NS(=O)(=O)c2ccc3c(c2)C2C=CCC2C(c2ccccc2F)N3)cc1` (centres undefined), the 50% inhibitory concentration (IC50) (in general, the point on the concentration scale where inhibition reaches its midpoint) is 17.7 µM (active). The result for `O=C(NC(=S)Nc1ccccc1C(=O)O)c1ccc(-c2ccc(Br)cc2)o1` reads 18.5 µM (active). The result for `O=C(CCCN1C(=O)/C(=C/c2cccs2)SC1=S)Nc1ccc(O)c(C(=O)O)c1` reads 24.1 µM (active); that for `O=C1NN(c2ccc(Cl)c(Cl)c2)C(=O)/C1=C/c1cccc(OC(=O)c2cccs2)c1`, 11.8 µM (active).

Source of the values: ChEMBL document CHEMBL1201862, “PubChem BioAssay data set” (2004).
